Laboratory results: patent US8569339B2, “Soluble guanylate cyclase activators” (Boehringer Ingelheim International GmbH, priority 2011, dated 2013)
Converted amounts (≈) assume the structure as drawn.

Legend:
[1] = Assessment of solubility (HT solubility, pION, UV); assay type: physicochemical; conditions: incubated 16-19 hours, 1.0% DMSO, 100 uM; for solubility kinetic: pH 4.5 buffer (pION system solution), pH 4.5, aqueous buffer, kinetic from dmso stock, pH 4.5 buffer, read-out: Sol pH 4.5; for Sol pH 7.4: pH 7.4 buffer
In short: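 Compounds were taken from 10 mM DMSO stocks into pH 4.5 or pH 7.4 buffer at 100 uM final (1.0% DMSO), run in duplicate, and incubated sealed for 16-19 h. Filtrates were diluted with N-propanol and read by UV at 250-498 nm against blank and reference spectra, […].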

[2] = biological target: T1, Recombinant human soluble guanylate cyclase (sGC) (Homo sapiens, UniProt Q02153); assay: Molecular assay: activation of heme-free sGC, cGMP detection (CisBio kit); assay type: biochemical; conditions: 300 pM heme-free sGC, 37° C., 60 minutes, cGMP formation
T1 construct: histidine tag (C); made in house; host or cells: Sf9 insect cells (baculovirus coinfection)
In short: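 Heme-free human α1/β1 sGC (His-tagged, Sf9-expressed, Tween 20-treated) at 300 pM incubated with compound in pH 6.8 MOPS buffer with 50 nM GTP, IBMX, 1% DMSO, 60 min at 37 °C. cGMP quantified by HTRF against a calibration curve; EC50 from combined undiluted and 80-fold diluted readings.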

T1 sequence (Q02108 whole entry partner): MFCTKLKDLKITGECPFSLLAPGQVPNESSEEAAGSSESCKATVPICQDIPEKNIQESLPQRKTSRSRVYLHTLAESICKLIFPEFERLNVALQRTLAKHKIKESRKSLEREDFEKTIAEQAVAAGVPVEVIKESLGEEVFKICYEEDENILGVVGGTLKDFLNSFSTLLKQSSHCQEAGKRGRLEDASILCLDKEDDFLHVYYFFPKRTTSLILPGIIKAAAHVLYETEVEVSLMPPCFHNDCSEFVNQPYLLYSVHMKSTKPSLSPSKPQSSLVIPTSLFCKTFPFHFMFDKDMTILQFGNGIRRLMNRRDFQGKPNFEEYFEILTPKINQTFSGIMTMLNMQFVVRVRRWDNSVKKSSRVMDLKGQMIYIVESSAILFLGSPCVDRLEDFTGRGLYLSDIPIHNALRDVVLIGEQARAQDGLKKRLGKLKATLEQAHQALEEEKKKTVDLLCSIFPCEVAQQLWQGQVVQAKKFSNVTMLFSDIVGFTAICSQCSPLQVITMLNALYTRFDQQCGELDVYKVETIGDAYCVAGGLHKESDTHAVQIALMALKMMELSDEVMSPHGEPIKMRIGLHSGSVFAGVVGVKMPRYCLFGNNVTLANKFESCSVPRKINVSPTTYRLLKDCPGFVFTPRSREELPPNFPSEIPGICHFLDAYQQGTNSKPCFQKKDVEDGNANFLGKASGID
T1 sequence (Q02153 whole entry): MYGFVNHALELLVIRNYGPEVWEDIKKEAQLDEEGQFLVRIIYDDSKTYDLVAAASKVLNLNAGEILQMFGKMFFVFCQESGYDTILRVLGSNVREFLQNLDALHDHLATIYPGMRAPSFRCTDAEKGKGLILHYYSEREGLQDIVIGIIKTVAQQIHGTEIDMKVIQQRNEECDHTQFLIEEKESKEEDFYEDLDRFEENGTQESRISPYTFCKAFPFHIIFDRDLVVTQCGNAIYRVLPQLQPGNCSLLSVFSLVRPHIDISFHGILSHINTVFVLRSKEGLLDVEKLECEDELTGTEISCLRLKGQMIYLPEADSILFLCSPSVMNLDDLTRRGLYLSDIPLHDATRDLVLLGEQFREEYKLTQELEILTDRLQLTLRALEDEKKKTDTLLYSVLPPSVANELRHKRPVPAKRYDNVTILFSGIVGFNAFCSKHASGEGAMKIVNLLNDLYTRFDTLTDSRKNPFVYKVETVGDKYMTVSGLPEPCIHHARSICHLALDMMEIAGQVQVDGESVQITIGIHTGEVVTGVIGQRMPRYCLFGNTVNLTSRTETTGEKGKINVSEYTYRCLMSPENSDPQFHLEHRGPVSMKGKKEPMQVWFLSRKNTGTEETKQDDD

Structure (SMILES)	solubility kinetic [1] [µg/mL]	Sol pH 7.4 [1] [μg/mL]	EC50 [2] [nM]
Cc1cccc(-c2cccc(-c3c(C)c(C(=O)O)nn3CC(F)(F)F)n2)c1OCc1ccc2c(c1)CCN(C1CCOCC1)C2 [Compound 87]	17.3 (≈ 27.9 µM)	14.1	180
Cc1ccc(OCc2ccc3c(c2C)CCN(C)C3)c(-c2cccc(-c3ncc(C(=O)O)n3C)n2)c1 [Compound 48, 2-{6-[2-(2,5-dimethyl-1,2,3,4-tetrahydroisoquinolin-6-ylmethoxy)-5-methylphenyl]pyridin-2-yl}-3-methyl-3H-imidazole-4-carboxylic acid]	5.1 (≈ 10.6 µM)	1.9	640
CCn1cc(CN2CCc3cc(COc4ccc(C)cc4-c4cccc(-n5ncc(C(=O)O)c5C(F)(F)F)n4)ccc3C2)cn1 [Compound 32]	10.8 (≈ 17.5 µM)	15.9	12
Cc1cccc(-c2cccc(-c3ncc(C(=O)O)n3C)n2)c1OCc1ccc2c(c1)CCN(C1CCCOC1)C2 (stereo not drawn) [Compound 75]	> 65	>65	175
Cc1ccc(OCc2ccc3c(c2)CCN(C2CCC2)C3)c(-c2cccc(-n3ncc(C(=O)O)c3C(F)(F)F)n2)c1 [Compound 16]	> 67	>67	33
Cc1ccc(OCc2ccc3c(c2)CCN(CC2CCCOC2)C3)c(-c2cccc(-n3ncc(C(=O)O)c3C(F)(F)F)n2)c1 (stereo not drawn) [Compound 26]	> 60	>60	3
Cc1ccc(OCc2ccc3c(c2)CCN(S(=O)(=O)CC(=O)O)C3)c(-c2cccc(-n3ncc(C(=O)O)c3C(F)(F)F)n2)c1 [Compound 1]	> 62	>62	148
